# Data taken from article PMC8022998 (Biomacromolecules, 2020).
# Target: TSPO (translocator protein (18 kDa)) (Oryctolagus cuniculus, UniProt G1SMF7)
# Assay: [3H]-PK11195 radioligand displacement, size exclusion desalting plates
# Type: binding
# Details: 1.2 nM [3H]-PK11195, 50 mM Tris-HCl pH 7.4, 30 min, room temperature; isolated mitochondria
# TSPO (translocator protein (18 kDa)), sequence (G1SMF7 229-397): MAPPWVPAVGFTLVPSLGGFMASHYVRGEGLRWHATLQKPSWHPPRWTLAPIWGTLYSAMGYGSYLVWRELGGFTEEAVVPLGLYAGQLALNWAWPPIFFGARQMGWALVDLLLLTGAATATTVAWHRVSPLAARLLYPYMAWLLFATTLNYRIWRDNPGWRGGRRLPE
row,IC50 [nM],SMILES
1,100 ± 20,CCN(CC)C(=O)Cc1c(-c2ccc(OCCn3cc(CO)nn3)cc2)nn2c(C)cc(C)nc12 [DPA-triazole]
2,5 ± 0.5,CCC(C)N(C)C(=O)c1cc2ccccc2c(-c2ccccc2Cl)n1 (centres unmarked) [PK11195]
